Consider two compounds from article PMC10362946 (Diabetes, obesity & metabolism, 2022).

The nature of data set [1]: in vivo. Set-up: species or system Crl:CD1(ICR) mice. The conditions noted are these: mouse, sc.
Data set [2] can be described thus: in vivo. Details: species or system sprague dawley rats. The conditions noted are these: rat, sc; for AUC(0-t) / CL/F / Cmax / Tmax / half-life: female, Sprague Dawley.
A further data set concerns gubra DIO rats. The conditions noted are these: gubra choice DIO model; cited from earlier work.
The mark [3] stands for this setting: both, Crl:CD1(ICR) (CD-1), 625 nmol/kg.

As to `CC[C@H](C)[C@H](NC(=O)[C@H](CC(C)C)NC(=O)[C@H](Cc1c[nH]c2ccccc12)NC(=O)[C@H](CCC(N)=O)NC(=O)[C@@H](NC(=O)[C@H](Cc1ccccc1)NC(=O)[C@H](C)NC(=O)[C@H](CCCCNC(=O)COCCOCCNC(=O)COCCOCCNC(=O)CC[C@H](NC(=O)CCCCCCCCCCCCCCCCCCC(=O)O)C(=O)O)NC(=O)[C@H](CCC(N)=O)NC(=O)[C@H](C)NC(=O)[C@@H](NC(=O)[C@H](CCCCN)NC(=O)[C@H](CC(=O)O)NC(=O)[C@H](CC(C)C)NC(=O)C(C)(C)NC(=O)[C@@H](NC(=O)[C@H](CO)NC(=O)[C@H](Cc1ccc(O)cc1)NC(=O)[C@H](CC(=O)O)NC(=O)[C@H](CO)NC(=O)[C@@H](NC(=O)[C@H](Cc1ccccc1)NC(=O)[C@@H](NC(=O)CNC(=O)[C@H](CCC(=O)O)NC(=O)C(C)(C)NC(=O)[C@@H](N)Cc1ccc(O)cc1)[C@@H](C)O)[C@@H](C)O)[C@@H](C)CC)[C@@H](C)CC)C(C)C)C(=O)N[C@@H](C)C(=O)NCC(=O)NCC(=O)N1CCC[C@H]1C(=O)N[C@@H](CO)C(=O)N[C@@H](CO)C(=O)NCC(=O)N[C@@H](C)C(=O)N1CCC[C@H]1C(=O)N1CCC[C@H]1C(=O)N1CCC[C@H]1C(=O)N[C@@H](CO)C(N)=O` [tirzepatide], in the data set “in vivo [1]” (setting [3]), the AUC(0-inf) turned out to be 71.7 µM·h, the CL/F is 0.145 mL/min/kg, the Cmax was 2.54 µM and the Tmax worked out at 12 h. The half-life in the data set “in vivo [1]” (setting [3]) was 11.9 h. For the same compound, the “T1/2 (elimination half-life)” value in the data set “in vivo [1]” was “approximately 12 hr”. Besides, in “in vivo [2]” (31 nmol/kg), the AUC(0-t) was determined as 3.74 µM·h, the CL/F is 0.139 mL/min/kg, the highest level (Cmax) was 0.127 µM and the Tmax was found to be 12 h. Besides, the half-life in the data set “in vivo [2]” (31 nmol/kg) is 9.3 h. Also, in “in vivo [2]” (104 nmol/kg), the AUC(0-t) is 10 µM·h, the CL/F is 0.172 mL/min/kg, the highest level (Cmax) was 0.31 µM and the Tmax amounted to 12 h. In the data set “in vivo [2]” (104 nmol/kg), the half-life was 10.3 h. Further, the T1/2 in the data set “in vivo [2]” worked out at 10.3 h.
Consider “liraglutide (HAEGTFTSDVSSYLEGQAAKEFIAWLVRGRG; chains of the INN, looked up)”, for which, in the data set with gubra DIO rats, the “cumulative chow intake compared to controls” value is “approximately doubled” and the “decrease of cumulative gubra diet intake compared to controls” value is “approximately 60%”.

As a reminder, the AUC(0-inf) is the area under the concentration-time curve extrapolated to infinity. The CL/F is clearance divided by bioavailability, as obtained after extravascular dosing. As a reminder, the Cmax is the peak of the concentration-time curve. The term Tmax denotes the time from dosing to the highest level. As usually defined, the half-life is how long it takes for the measured level to halve. Read a low half-life as fast loss. As usually defined, the AUC(0-t) is exposure summed from dosing to a finite time, without extrapolation to infinity. Low readings indicate low exposure, high ones high exposure.
